In experiment [1] the target is T1, Dihydrofolate reductase (Homo sapiens, UniProt P00374).
T1 sequence (P00374 whole entry): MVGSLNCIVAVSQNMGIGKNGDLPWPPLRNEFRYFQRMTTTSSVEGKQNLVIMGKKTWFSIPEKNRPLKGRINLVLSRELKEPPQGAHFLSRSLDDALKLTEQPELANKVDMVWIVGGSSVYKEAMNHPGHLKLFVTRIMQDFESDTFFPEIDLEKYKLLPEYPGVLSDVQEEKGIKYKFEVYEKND
Nature of the experiment: Inhibition of human DHFR in presence of DHF and NADPH by UV-vis spectrometry by Lineweaver-Burk plot analysis.

Experiment [2] in a line: Inhibition of Escherichia coli DHFR.
Experiment [3] can be described thus: Selectivity index, ratio of Ki for Escherichia coli DHFR to Ki for human DHFR.
A short description of experiment [4]: Selectivity index, ratio of Ki for Lactobacillus casei DHFR to Ki for human DHFR.
Experiment [5] is described as follows: Inhibition of Lactobacillus casei DHFR. Also on record: species or system Lacticaseibacillus casei.
For experiment [6], the target named is Bifunctional purine biosynthesis protein ATIC (Homo sapiens, UniProt P31939). Briefly: Inhibition of AICAR transformylase (unknown origin).

Structures are written as SMILES.

Bifunctional purine biosynthesis protein ATIC, sequence (P31939 whole entry): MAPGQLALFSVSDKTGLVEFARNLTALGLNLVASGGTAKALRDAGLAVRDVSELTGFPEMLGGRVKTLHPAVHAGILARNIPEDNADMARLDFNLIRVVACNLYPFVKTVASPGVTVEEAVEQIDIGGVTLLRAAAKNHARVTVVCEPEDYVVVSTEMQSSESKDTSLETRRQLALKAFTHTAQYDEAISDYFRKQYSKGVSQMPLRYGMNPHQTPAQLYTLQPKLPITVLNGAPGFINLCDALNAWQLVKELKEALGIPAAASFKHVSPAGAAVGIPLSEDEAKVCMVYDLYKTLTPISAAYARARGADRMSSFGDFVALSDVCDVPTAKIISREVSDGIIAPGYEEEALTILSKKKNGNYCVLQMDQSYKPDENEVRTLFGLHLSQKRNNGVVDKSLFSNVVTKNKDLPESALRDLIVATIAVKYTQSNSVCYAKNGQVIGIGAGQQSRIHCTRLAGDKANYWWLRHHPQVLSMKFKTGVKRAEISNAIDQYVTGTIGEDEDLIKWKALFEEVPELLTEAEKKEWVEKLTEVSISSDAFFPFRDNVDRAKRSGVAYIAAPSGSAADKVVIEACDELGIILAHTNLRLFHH

Regarding `N=C(N)NC(=N)NCCc1ccccc1` [PHENFORMIN], the inhibitory constant (Ki) (usually a measure of affinity in units of concentration, obtained from inhibition or displacement) in experiment [1] was determined as 140 µM. The IC50 (as a rule, the concentration needed to halve the response being measured) in experiment [2] came out at 0.17 mM.

Consider `O=C(O)CNC(=O)c1ccccc1` [HIPPURIC ACID], for which the Ki in experiment [1] was determined as 17000 µM.

For the compound `O=C(O)CCC(=O)c1ccc(-c2ccccc2)cc1` [FENBUFEN], in experiment [1], the Ki amounted to 360 µM.

As to `N[C@@H](Cc1c[nH]c2ccccc12)C(=O)O` [TRYPTOPHAN], in experiment [1], the IC50 was determined as 6.5 mM and the Ki was 2800 µM.

For the compound `COc1ccc2cc([C@H](C)C(=O)O)ccc2c1` [NAPROXEN], the Ki in experiment [1] is 7000 µM.

Take `CN(C)C(=N)NC(=N)N` [METFORMIN]: in experiment [1], the Ki was 18000 µM. The compound also registered an IC50 in experiment [2] of 17.9 mM.

As to `Nc1ccnc(N)n1` [DIAMINOPYRIMIDINE], the Ratio Ki in experiment [3] and in experiment [4] was 10 throughout. Further, the Ki in experiment [5] and in experiment [2] was 1.8 mM in each case.

Take `Cc1cccc(Nc2ccccc2C(=O)O)c1C` [MEFENAMIC ACID]: the Ki in experiment [1] is 72 µM.

Regarding `O=C(O)Cc1ccccc1Nc1c(Cl)cccc1Cl` [DICLOFENAC], in experiment [1], the Ki worked out at 160 µM.

As for `COc1ccc2cc([C@@H](C)C(=O)O)ccc2c1`, the Ki in experiment [1] worked out at 3400 µM.

The compound `O=C(O)c1cc(/N=N/c2ccc(S(=O)(=O)Nc3ccccn3)cc2)ccc1O` [SULFASALAZINE] registered a Ki in experiment [6] of 22 µM.

As to `CCc1cccc2c3c([nH]c12)C(CC)(CC(=O)O)OCC3` (configuration not stated) [ETODOLAC], the Ki in experiment [1] came out at 1800 µM.

For the compound `CC(C)Cc1ccc(C(C)C(=O)O)cc1` (configuration not stated) [IBUPROFEN], in experiment [1], the Ki was 560 µM.

Consider `O=C(O)c1cc(-c2ccc(F)cc2F)ccc1O` [DIFLUNISAL], for which, in experiment [1], the Ki is 34 µM.

As to `O=C(O)c1cc(-c2ccccc2)ccc1O`, the Ki in experiment [1] came to 48 µM.

For `Nc1ccc(C(=O)N[C@@H](CCC(=O)O)C(=O)O)cc1`, the Ki in experiment [1] amounted to 180 µM.

(Values after ChEMBL document CHEMBL4619782, “The Structural Basis for Nonsteroidal Anti-Inflammatory Drug Inhibition of Human Dihydrofolate Reductase” (J Med Chem, 2020).)
